From the NIST ThermoML archive (doi:10.1021/je025629r)
Numbers after ± are expanded uncertainties.

conditions: 298.2 K; 101.33 kPa; Liquid; vibrating tube

Compound | mass density [kg/m3]
CCCCCCCC[n+]1ccn(C)c1.[Cl-] [1-methyl-3-octylimidazolium chloride] | 1010.4 ± 1
CCCCCCCCCCCC [dodecane] | 746.6 ± 0.4
CCO [ethanol] | 784.93 ± 0.42
CCCCCCC [heptane] | 682.3 ± 0.4
CCCCCCCCCCCCCCCC [hexadecane] | 770.3 ± 0.4
CO [methanol] | 786.27 ± 0.42
